From patent publication US20230295197A1, “STAT5 and STAT6 Degraders and Uses Thereof” (REGENTS OF THE UNIVERSITY OF MICHICAN, priority 2022, published 2023)
Read-outs that look alike come from different tables or passages of the source.

Test system: STAT5
Test: Immunoblotting (Western blot) analysis of STAT5 degradation efficiency of degraders in treated cells
Format: cell-based
Method: Evaluation of the degradation efficiency of degraders may be accomplished by immunoblotting analysis. The representative general protocol is the following:
Cells are maintained in the appropriate culture medium with 10% FBS at 37° C. and an atmosphere of 5% CO2. Cell lines are used within three months of thawing fresh vials. Cells are lysed 1× Cell Lysis Buffer (Cell Signaling Technology, #9803), resolved by SDS-PAGE NuPAGE gel (Thermo Fisher Scientific), and transferred to a PVDF membrane (Millipore). Membranes are blocked using Odyssey TBS Blocker Buffer (LI-COR). IRDye 680RD and 800CW Dye-labeled secondary antibodies (LI-COR) are used. The washed membranes are scanned using Odyssey CLx imager (LI-COR). The intensity of Western blot signaling is quantitated using the Odyssey software. Primary antibodies used are: STAT5 Rabbit mAb (Cell Signaling Technology, #94205), STAT6 Rabbit mAb (Cell Signaling Technology, #5397) and GAPDH mouse monoclonal antibody (Santa Cruz Biotechnology, sc-47724).
To evaluate the degradation efficiency of degraders, immunoblotting analysis was performed. The general protocol is the following.
About 1 million cells for each data point were treated with compounds at indicated concentrations and durations. Untreated and treated cells in cell culture medium were transferred into tubes, followed by centrifugation at 3,000 rpm and 4° C. for 6 min Supernatants were removed from tubes and radioimmunoprecipitation assay (RIPA) lysis buffer supplemented with 1% protease inhibitor cocktail (Fisher Scientific cat. PI87786) and phosphatase inhibitor (Roche cat. 04906837001) were added to tubes containing the remaining cell pellets. The tubes were then left on ice for 30 min and placed in a −80° C. freezer. Subsequently they were thawed in 37° C. water, then centrifuged at 14,000 rpm for 15 min and the cell lysates transferred to new tubes. The concentration of total proteins in each tube was calculated using the Pierce BCA protein Assay kit (cat. 23225). Based on the calculated protein concentration, cell lysates containing approximately the same amount of proteins were transferred to new tubes, then distilled water and 4× Protein Sample Loading Buffer for Western Blots (LI-COR cat. 928-40004) supplemented with 20% of mercaptoethanol (Sigma Aldrich cat. M6250) were added on ice. The cell lysates were then reduced and denatured at 95° C. for 5 min. From the tubes containing cell lysates an equal amount of protein samples (20-40 μg) was loaded into precast 8%, 10%, 4%-12%, or 4%-20% Tris-glycine gels (Novex) filled with Tris-glycine SDS running buffer. After the proteins were resolved, they were transferred onto Immobile-FL PVDF Membrane (Millipore Sigma cat. IPFL00010), using Mini Trans-Blot Electrophoretic Transfer Cell (Bio-Rad 1703930). The membranes were blocked with Intercept Blocking Buffer (LI-COR cat. 927-70001) in LI-COR Western Blot boxes for 1 h at rt. The membranes were washed with 1× Tris-buffered saline-Tween-20 (TBST, 1× solution was made from 20×TBST solution, ThermoFisher Scientific cat. 28360) for 5 min 4 times. The membranes were incubated overnight at 4° C. in Intercept Blocking Buffer supplemented with primary antibodies (normally antibody:buffer 1:1000) and Tween-20. The membranes were washed with TBST for 5 min 4 times and were incubated with Intercept Blocking Buffer supplemented with IRDye 800CE Secondary Antibodies, IRDye 680RD Secondary Antibodies (LI-COR biosciences), Tween-20, and 10% SDS solution, for 1 h at rt. The membranes were then washed with TBST for 5 min 4 times and rinsed with deionized water before drying and scanning with Odyssey Dlx Amazing System (LI-COR). The immunoblots were finally quantified by the software.

[1] = MOLM-16 cells, numeric bound, read-out: DC50 S5 MOLM-16
[2] = SKNO1 cells, read-out: DC50 S5 SKNO1
[3] = KU-812 cells, read-out: DC50 S5 KU-812

Row | SMILES | DC50 [1] [µM] | DC50 [2] [µM] | DC50 [3] [µM] | DC50 (MOLM-16 cells, class symbols, read-out: DC50 S5 MOLM-16) [µM]
1 | CC(C)(C)[C@H](NC(=O)c1cc2cc(C(F)(F)P(=O)(O)O)ccc2s1)C(=O)N1CCC[C@H]1C(=O)N(CCC(=O)NCCCCC#Cc1cccc2c1CN(C1CCC(=O)NC1=O)C2=O)c1ccc(Cl)c(F)c1 (stereo partly drawn) [Compound 639, ((2-(((2S)-1-((2S)-2-((4-chloro-3-fluorophenyl)(3-((6-(2-(2,6-dioxopiperidin-3-yl)-1-oxoisoindolin-4-yl)hex-5-yn-1-yl)amino)-3-oxopropyl)carbamoyl)pyrrolidin-1-yl)-3,3-dimethyl-1-oxobutan-2-yl)carbamoyl)benzo[b]thiophen-5-yl)difluoromethyl)phosphonic acid] | > 0.3 | > 10 | – | –
2 | CC(C)(C)[C@H](NC(=O)c1cc2cc(C(F)(F)P(=O)(O)O)ccc2s1)C(=O)N1CCC[C@H]1C(=O)N(CCC(=O)NCCCC#Cc1cccc2c1CN(C1CCC(=O)NC1=O)C2=O)c1ccc(F)cc1 (stereo partly drawn) [Compound 634, ((2-(((2S)-1-((2S)-2-((3-((5-(2-(2,6-dioxopiperidin-3-yl)-1-oxoisoindolin-4-yl)pent-4-yn-1-yl)amino)-3-oxopropyl)(4-fluorophenyl)carbamoyl)pyrrolidin-1-yl)-3,3-dimethyl-1-oxobutan-2-yl)carbamoyl)benzo[b]thiophen-5-yl)difluoromethyl)phosphonic acid] | > 0.3 | > 10 | – | –
3 | CC(C)(C)[C@H](NC(=O)c1cc2cc(C(F)(F)P(=O)(O)O)ccc2s1)C(=O)N1CCC[C@H]1C(=O)N(CCC(=O)NCCCC#Cc1cccc2c1CN(C1CCC(=O)NC1=O)C2=O)c1ccc(C2CCOCC2)cc1 (stereo partly drawn) [Compound 651, ((2-(((2S)-1-((2S)-2-((3-((5-(2-(2,6-dioxopiperidin-3-yl)-1-oxoisoindolin-4-yl)pent-4-yn-1-yl)amino)-3-oxopropyl)(4-(tetrahydro-2H-pyran-4-yl)phenyl)carbamoyl)pyrrolidin-1-yl)-3,3-dimethyl-1-oxobutan-2-yl)carbamoyl)benzo[b]thiophen-5-yl)difluoromethyl)phosphonic acid] | > 0.3 | > 10 | – | –
4 | CC(C)(C)[C@H](NC(=O)c1cc2cc(C(F)(F)P(=O)(O)O)ccc2s1)C(=O)N1C[C@H](OCc2ccccc2)C[C@H]1C(=O)N(CCC(=O)NCCCC#Cc1cccc2c1CN(C1CCC(=O)NC1=O)C2=O)c1ccc(Br)cc1 (some centres unmarked) [Compound 618] | > 0.3 | – | – | –
5 | CC(C)(C)[C@H](NC(=O)c1cc2cc(C(F)(F)P(=O)(O)O)ccc2s1)C(=O)N1CCC[C@H]1C(=O)N(CCC(=O)NCCCC#Cc1cccc2c1CN(C1CCC(=O)NC1=O)C2=O)c1cccc(C#N)c1 (stereo partly drawn) [Compound 643, ((2-(((2S)-1-((2S)-2-((3-cyanophenyl)(3-((5-(2-(2,6-dioxopiperidin-3-yl)-1-oxoisoindolin-4-yl)pent-4-yn-1-yl)amino)-3-oxopropyl)carbamoyl)pyrrolidin-1-yl)-3,3-dimethyl-1-oxobutan-2-yl)carbamoyl)benzo[b]thiophen-5-yl)difluoromethyl)phosphonic acid] | > 0.3 | > 10 | – | –
6 | CC(C)(C)[C@H](NC(=O)c1cc2cc(C(F)(F)P(=O)(O)O)ccc2s1)C(=O)N1CCC[C@H]1C(=O)N(CC(=O)NCCCCC#Cc1cccc2c1CN(C1CCC(=O)NC1=O)C2=O)c1ccc(F)cc1 (stereo partly drawn) [Compound 640, ((2-(((2S)-1-((2S)-2-((2-((6-(2-(2,6-dioxopiperidin-3-yl)-1-oxoisoindolin-4-yl)hex-5-yn-1-yl)amino)-2-oxoethyl)(4-fluorophenyl)carbamoyl)pyrrolidin-1-yl)-3,3-dimethyl-1-oxobutan-2-yl)carbamoyl)benzo[b]thiophen-5-yl)difluoromethyl)phosphonic acid] | > 0.3 | – | – | –
7 | CC(C)(C)[C@H](NC(=O)c1cc2cc(C(F)(F)P(=O)(O)O)ccc2s1)C(=O)N1C[C@@H](OCc2ccccc2)C[C@H]1C(=O)N(CCC(=O)NCCCCC#Cc1cccc2c1CN(C1CCC(=O)NC1=O)C2=O)c1ccc(Br)cc1 (stereo partly drawn) [Compound 624, ((2-(((2S)-1-((2S,4S)-4-(benzyloxy)-2-((4-bromophenyl)(3-((6-(2-(2,6-dioxopiperidin-3-yl)-1-oxoisoindolin-4-yl)hex-5-yn-1-yl)amino)-3-oxopropyl)carbamoyl)pyrrolidin-1-yl)-3,3-dimethyl-1-oxobutan-2-yl)carbamoyl)benzo[b]thiophen-5-yl)difluoromethyl)phosphonic acid] | > 0.3 | – | – | –
8 | CC(C)(C)[C@H](NC(=O)c1cc2cc(C(F)(F)P(=O)(O)O)ccc2s1)C(=O)N1CCC[C@H]1C(=O)N(CCC(=O)NCCCC#Cc1cccc2c1CN(C1CCC(=O)NC1=O)C2=O)c1ccc(I)cc1 (stereo partly drawn) [Compound 637, ((2-(((2S)-1-((2S)-2-((3-((5-(2-(2,6-dioxopiperidin-3-yl)-1-oxoisoindolin-4-yl)pent-4-yn-1-yl)amino)-3-oxopropyl)(4-iodophenyl)carbamoyl)pyrrolidin-1-yl)-3,3-dimethyl-1-oxobutan-2-yl)carbamoyl)benzo[b]thiophen-5-yl)difluoromethyl)phosphonic acid] | > 0.3 | 0.1 to 1 | – | –
9 | CN(CCCC#Cc1cccc2c1CN(C1CCC(=O)NC1=O)C2=O)C(=O)CCN(C(=O)[C@@H]1CCCN1C(=O)[C@@H](NC(=O)c1cc2cc(C(F)(F)P(=O)(O)O)ccc2s1)C(C)(C)C)c1ccc2scnc2c1 (stereo partly drawn) [Compound 684, ((2-(((2S)-1-((2S)-2-(benzo[d]thiazol-5-yl(3-((5-(2-(2,6-dioxopiperidin-3-yl)-1-oxoisoindolin-4-yl)pent-4-yn-1-yl)(methyl)amino)-3-oxopropyl)carbamoyl)pyrrolidin-1-yl)-3,3-dimethyl-1-oxobutan-2-yl)carbamoyl)benzo[b]thiophen-5-yl)difluoromethyl)phosphonic acid] | – | 0.1 to 1 | 0.1 to 1 | –
10 | CC(C)(C)[C@H](NC(=O)c1cc2cc(C(F)(F)P(=O)(O)O)ccc2s1)C(=O)N1CCC[C@H]1C(=O)N(CCC(=O)NCCCC#Cc1cccc2c1CN(C1CCC(=O)NC1=O)C2=O)c1ccc(-c2cccs2)cc1 (stereo partly drawn) [Compound 648, ((2-(((2S)-1-((2S)-2-((3-((5-(2-(2,6-dioxopiperidin-3-yl)-1-oxoisoindolin-4-yl)pent-4-yn-1-yl)amino)-3-oxopropyl)(4-(thiophen-2-yl)phenyl)carbamoyl)pyrrolidin-1-yl)-3,3-dimethyl-1-oxobutan-2-yl)carbamoyl)benzo[b]thiophen-5-yl)difluoromethyl)phosphonic acid] | – | 0.1 to 1 | 0.1 to 1 | < 0.1
11 | CC(C)(C)[C@H](NC(=O)c1cc2cc(C(F)(F)P(=O)(O)O)ccc2s1)C(=O)N1C[C@@H](OCc2ccccc2)C[C@H]1C(=O)N(CCC(=O)NCCC#Cc1cccc2c1CN(C1CCC(=O)NC1=O)C2=O)c1ccc(Br)cc1 (stereo partly drawn) [Compound 622, ((2-(((2S)-1-((2S,4S)-4-(benzyloxy)-2-((4-bromophenyl)(3-((4-(2-(2,6-dioxopiperidin-3-yl)-1-oxoisoindolin-4-yl)but-3-yn-1-yl)amino)-3-oxopropyl)carbamoyl)pyrrolidin-1-yl)-3,3-dimethyl-1-oxobutan-2-yl)carbamoyl)benzo[b]thiophen-5-yl)difluoromethyl)phosphonic acid] | > 0.3 | – | – | –
12 | CC(C)(C)[C@H](NC(=O)c1cc2cc(C(F)(F)P(=O)(O)O)ccc2s1)C(=O)N1C[C@H](OCc2ccccc2)C[C@H]1C(=O)N(CCC(=O)NCCCCC#Cc1cccc2c1CN(C1CCC(=O)NC1=O)C2=O)c1ccc(Br)cc1 (stereo partly drawn) [Compound 619, ((2-(((2S)-1-((2S,4R)-4-(benzyloxy)-2-((4-bromophenyl)(3-((6-(2-(2,6-dioxopiperidin-3-yl)-1-oxoisoindolin-4-yl)hex-5-yn-1-yl)amino)-3-oxopropyl)carbamoyl)pyrrolidin-1-yl)-3,3-dimethyl-1-oxobutan-2-yl)carbamoyl)benzo[b]thiophen-5-yl)difluoromethyl)phosphonic acid] | > 0.3 | – | – | –
